In publication PMC8185074, “Anchor extension: a structure-guided approach to design cyclic peptides targeting enzyme active sites” (Nature Communications, 2021):
Peptide text beside a SMILES is read from it.

Assays:
HDAC6 = molecular target: T1, HDAC6 (Homo sapiens, UniProt Q9UBN7); assay: HDAC6 inhibition, full IC50 measurement (Reaction Biology; fluorogenic p53 peptide RHKK(Ac)AMC); assay type: biochemical
T1 construct: purchased Reaction Biology Corporation (assay run by the CRO)
T1 sequence (Q9UBN7 1-1215): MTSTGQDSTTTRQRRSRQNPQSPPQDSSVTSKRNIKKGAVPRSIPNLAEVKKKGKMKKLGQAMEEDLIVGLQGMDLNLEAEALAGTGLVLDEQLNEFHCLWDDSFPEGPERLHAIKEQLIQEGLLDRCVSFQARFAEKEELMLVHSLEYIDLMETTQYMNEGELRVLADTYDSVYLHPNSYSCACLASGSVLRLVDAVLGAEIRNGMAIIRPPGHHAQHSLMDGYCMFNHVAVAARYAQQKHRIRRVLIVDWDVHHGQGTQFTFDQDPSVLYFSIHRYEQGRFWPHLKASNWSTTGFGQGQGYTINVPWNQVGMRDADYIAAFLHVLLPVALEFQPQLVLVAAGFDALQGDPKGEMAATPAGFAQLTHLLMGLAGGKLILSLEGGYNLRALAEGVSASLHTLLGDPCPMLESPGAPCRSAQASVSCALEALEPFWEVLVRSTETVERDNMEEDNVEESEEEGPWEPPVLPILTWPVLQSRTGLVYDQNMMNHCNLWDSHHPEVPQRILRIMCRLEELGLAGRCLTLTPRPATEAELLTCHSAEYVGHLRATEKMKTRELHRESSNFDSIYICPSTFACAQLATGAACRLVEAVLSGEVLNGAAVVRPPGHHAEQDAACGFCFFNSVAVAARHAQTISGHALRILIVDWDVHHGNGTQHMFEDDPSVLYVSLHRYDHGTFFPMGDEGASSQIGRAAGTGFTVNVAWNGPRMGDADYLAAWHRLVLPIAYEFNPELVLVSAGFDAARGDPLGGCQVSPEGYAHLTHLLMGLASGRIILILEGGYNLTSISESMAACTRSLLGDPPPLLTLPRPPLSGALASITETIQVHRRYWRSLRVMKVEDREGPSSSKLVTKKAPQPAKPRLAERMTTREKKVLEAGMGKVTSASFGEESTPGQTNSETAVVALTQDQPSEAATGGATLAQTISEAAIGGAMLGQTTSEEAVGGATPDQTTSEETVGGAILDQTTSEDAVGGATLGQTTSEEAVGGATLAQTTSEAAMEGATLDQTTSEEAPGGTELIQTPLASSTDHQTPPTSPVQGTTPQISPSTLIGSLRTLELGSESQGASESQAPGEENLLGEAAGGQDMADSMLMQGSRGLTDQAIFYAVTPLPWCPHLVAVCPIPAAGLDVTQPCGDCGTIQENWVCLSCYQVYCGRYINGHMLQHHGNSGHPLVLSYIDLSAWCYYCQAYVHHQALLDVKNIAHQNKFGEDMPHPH
Procedure, shortened: (§1)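 Deacetylation of 50 μM RHKK(Ac)AMC is measured after 1 h at 30 °C in pH 8.0 Tris buffer (1% DMSO, 1 mg/ml BSA). Developer ends the reaction; the post-plateau 360/460 nm signal is fitted to IC50, averaging replicate measurements.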

HDAC3 = molecular target: T2, HDAC3 (Homo sapiens, UniProt O15379); assay: HDAC3 inhibition, full IC50 measurement (Reaction Biology; fluorogenic p53 peptide RHKK(Ac)AMC); assay type: biochemical
T2 construct: purchased Reaction Biology Corporation (assay run by the CRO)
T2 sequence (O15379 whole entry): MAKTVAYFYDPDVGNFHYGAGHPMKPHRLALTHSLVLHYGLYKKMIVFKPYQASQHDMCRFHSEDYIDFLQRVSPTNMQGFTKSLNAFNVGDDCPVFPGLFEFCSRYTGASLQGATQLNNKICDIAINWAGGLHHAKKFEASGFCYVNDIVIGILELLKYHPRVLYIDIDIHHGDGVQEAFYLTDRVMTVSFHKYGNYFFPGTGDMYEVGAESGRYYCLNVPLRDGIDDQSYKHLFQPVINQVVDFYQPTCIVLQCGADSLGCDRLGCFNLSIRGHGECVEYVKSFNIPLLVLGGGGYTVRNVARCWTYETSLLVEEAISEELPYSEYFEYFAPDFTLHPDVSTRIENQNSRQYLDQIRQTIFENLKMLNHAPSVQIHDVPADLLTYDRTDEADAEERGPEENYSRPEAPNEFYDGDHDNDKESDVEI
T2 sequence (Q9Y618 395-489 partner limits assumed): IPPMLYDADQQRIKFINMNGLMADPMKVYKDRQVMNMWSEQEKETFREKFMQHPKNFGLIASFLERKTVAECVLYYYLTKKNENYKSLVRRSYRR
Procedure, shortened: as §1

Compound: CSCC[C@H]1NC(=O)[C@@H](CO)NC(=O)[C@H](CC(N)=O)NC(=O)[C@H](CC(=O)O)NC(=O)[C@@H]([C@H](C)O)NC(=O)[C@H](Cc2c[nH]c3ccccc23)NC(=O)[C@H](CCCCCS)NC(=O)[C@H](CCCCN)NC(=O)[C@@H](CC(=O)O)NC1=O [des2.1.1, SHA-Trp-dThr-Asp-Asn-dSer-dMet-dAsp-Lys] (HELM PEPTIDE1{D.N.[dS].[dM].[dD].K.[O=C([C@H](CCCCCS)N[*:1])[*:2]].W.[dT]}$PEPTIDE1,PEPTIDE1,1:R1-9:R2$$$V2.0)
- HDAC6 activity raw data (signal) (HDAC6; Conc. 1.00E-05 M, t1): -77
- HDAC6 activity raw data (signal) (HDAC6; Conc. 1.00E-05 M, t2): -1621
- HDAC6 activity raw data (signal) (HDAC6; Conc. 1.11E-06 M, t1): 12750
- HDAC6 activity raw data (signal) (HDAC6; Conc. 1.11E-06 M, t2): 10889
- HDAC6 activity raw data (signal) (HDAC6; Conc. 1.23E-07 M, t1): 59972
- HDAC6 activity raw data (signal) (HDAC6; Conc. 1.23E-07 M, t2): 56137
- HDAC6 activity raw data (signal) (HDAC6; Conc. 1.37E-08 M, t1): 194975
- HDAC6 activity raw data (signal) (HDAC6; Conc. 1.37E-08 M, t2): 185826
- HDAC6 activity raw data (signal) (HDAC6; Conc. 1.52E-09 M, t1): 455139
- HDAC6 activity raw data (signal) (HDAC6; Conc. 1.52E-09 M, t2): 435218
- HDAC6 activity raw data (signal) (HDAC6; Conc. 3.33E-06 M, t1): 6654
- HDAC6 activity raw data (signal) (HDAC6; Conc. 3.33E-06 M, t2): 2213
- HDAC6 activity raw data (signal) (HDAC6; Conc. 3.70E-07 M, t1): 27729
- HDAC6 activity raw data (signal) (HDAC6; Conc. 3.70E-07 M, t2): 16335
- HDAC6 activity raw data (signal) (HDAC6; Conc. 4.12E-08 M, t1): 104749
- HDAC6 activity raw data (signal) (HDAC6; Conc. 4.12E-08 M, t2): 101798
- HDAC6 activity raw data (signal) (HDAC6; Conc. 4.57E-09 M, t1): 322592
- HDAC6 activity raw data (signal) (HDAC6; Conc. 4.57E-09 M, t2): 306483
- HDAC6 activity raw data (signal) (HDAC6; Conc. 5.08E-10 M, t1): 505663
- HDAC6 activity raw data (signal) (HDAC6; Conc. 5.08E-10 M, t2): 482059
- HDAC3 activity raw data (signal) (HDAC3; Conc. 1.00E-05 M, t1): 7144
- HDAC3 activity raw data (signal) (HDAC3; Conc. 1.00E-05 M, t2): 5841
- HDAC3 activity raw data (signal) (HDAC3; Conc. 1.11E-06 M, t1): 51390
- HDAC3 activity raw data (signal) (HDAC3; Conc. 1.11E-06 M, t2): 54678
- HDAC3 activity raw data (signal) (HDAC3; Conc. 1.23E-07 M, t1): 246556
- HDAC3 activity raw data (signal) (HDAC3; Conc. 1.23E-07 M, t2): 273031
- HDAC3 activity raw data (signal) (HDAC3; Conc. 1.37E-08 M, t1): 687389
- HDAC3 activity raw data (signal) (HDAC3; Conc. 1.37E-08 M, t2): 738917
- HDAC3 activity raw data (signal) (HDAC3; Conc. 1.52E-09 M, t1): 1292643
- HDAC3 activity raw data (signal) (HDAC3; Conc. 1.52E-09 M, t2): 1253696
- HDAC3 activity raw data (signal) (HDAC3; Conc. 3.33E-06 M, t1): 22832
- HDAC3 activity raw data (signal) (HDAC3; Conc. 3.33E-06 M, t2): 23560
- HDAC3 activity raw data (signal) (HDAC3; Conc. 3.70E-07 M, t1): 127387
- HDAC3 activity raw data (signal) (HDAC3; Conc. 3.70E-07 M, t2): 114572
- HDAC3 activity raw data (signal) (HDAC3; Conc. 4.12E-08 M, t1): 487885
- HDAC3 activity raw data (signal) (HDAC3; Conc. 4.12E-08 M, t2): 457810
- HDAC3 activity raw data (signal) (HDAC3; Conc. 4.57E-09 M, t1): 1034207
- HDAC3 activity raw data (signal) (HDAC3; Conc. 4.57E-09 M, t2): 1052923
- HDAC3 activity raw data (signal) (HDAC3; Conc. 5.08E-10 M, t1): 1393662
- HDAC3 activity raw data (signal) (HDAC3; Conc. 5.08E-10 M, t2): 1455609

Compound: CC(C)C[C@H]1NC(=O)[C@H](Cc2c[nH]c3ccccc23)NC(=O)[C@H](CCCCCS)NC(=O)[C@@H](Cc2ccc(O)cc2)NC(=O)[C@@H](C(C)C)NC(=O)[C@H](Cc2c[nH]cn2)NC(=O)CNC(=O)CNC(=O)[C@@H](CO)NC1=O [des2.2.0, SHA-Trp-dLeu-dSer-Gly-Gly-His-dVal-dTyr] (HELM PEPTIDE1{G.G.H.[dV].[dY].[O=C([C@H](CCCCCS)N[*:1])[*:2]].W.[dL].[dS]}$PEPTIDE1,PEPTIDE1,1:R1-9:R2$$$V2.0)
- HDAC6 activity raw data (signal) (HDAC6; Conc. 1.00E-05 M, t1): 16305
- HDAC6 activity raw data (signal) (HDAC6; Conc. 1.00E-05 M, t2): 24452
- HDAC6 activity raw data (signal) (HDAC6; Conc. 1.11E-06 M, t1): 83235
- HDAC6 activity raw data (signal) (HDAC6; Conc. 1.11E-06 M, t2): 80880
- HDAC6 activity raw data (signal) (HDAC6; Conc. 1.23E-07 M, t1): 144589
- HDAC6 activity raw data (signal) (HDAC6; Conc. 1.23E-07 M, t2): 161069
- HDAC6 activity raw data (signal) (HDAC6; Conc. 1.37E-08 M, t1): 141422
- HDAC6 activity raw data (signal) (HDAC6; Conc. 1.37E-08 M, t2): 164330
- HDAC6 activity raw data (signal) (HDAC6; Conc. 1.52E-09 M, t1): 132716
- HDAC6 activity raw data (signal) (HDAC6; Conc. 1.52E-09 M, t2): 164682
- HDAC6 activity raw data (signal) (HDAC6; Conc. 3.33E-06 M, t1): 43855
- HDAC6 activity raw data (signal) (HDAC6; Conc. 3.33E-06 M, t2): 31435
- HDAC6 activity raw data (signal) (HDAC6; Conc. 3.70E-07 M, t1): 128192
- HDAC6 activity raw data (signal) (HDAC6; Conc. 3.70E-07 M, t2): 121991
- HDAC6 activity raw data (signal) (HDAC6; Conc. 4.12E-08 M, t1): 140481
- HDAC6 activity raw data (signal) (HDAC6; Conc. 4.12E-08 M, t2): 177888
- HDAC6 activity raw data (signal) (HDAC6; Conc. 4.57E-09 M, t1): 138901
- HDAC6 activity raw data (signal) (HDAC6; Conc. 4.57E-09 M, t2): 160834
- HDAC6 activity raw data (signal) (HDAC6; Conc. 5.08E-10 M, t1): 128639
- HDAC6 activity raw data (signal) (HDAC6; Conc. 5.08E-10 M, t2): 162548
- HDAC3 activity raw data (signal) (HDAC3; Conc. 1.00E-05 M, t1): 556301
- HDAC3 activity raw data (signal) (HDAC3; Conc. 1.00E-05 M, t2): 606764
- HDAC3 activity raw data (signal) (HDAC3; Conc. 1.11E-06 M, t1): 913376
- HDAC3 activity raw data (signal) (HDAC3; Conc. 1.11E-06 M, t2): 1016072
- HDAC3 activity raw data (signal) (HDAC3; Conc. 1.23E-07 M, t1): 993017
- HDAC3 activity raw data (signal) (HDAC3; Conc. 1.23E-07 M, t2): 1391457
- HDAC3 activity raw data (signal) (HDAC3; Conc. 1.37E-08 M, t1): 1020645
- HDAC3 activity raw data (signal) (HDAC3; Conc. 1.37E-08 M, t2): 1085089
- HDAC3 activity raw data (signal) (HDAC3; Conc. 1.52E-09 M, t1): 1012899
- HDAC3 activity raw data (signal) (HDAC3; Conc. 1.52E-09 M, t2): 1059045
- HDAC3 activity raw data (signal) (HDAC3; Conc. 3.33E-06 M, t1): 841514
- HDAC3 activity raw data (signal) (HDAC3; Conc. 3.33E-06 M, t2): 795799
- HDAC3 activity raw data (signal) (HDAC3; Conc. 3.70E-07 M, t1): 980314
- HDAC3 activity raw data (signal) (HDAC3; Conc. 3.70E-07 M, t2): 1161998
- HDAC3 activity raw data (signal) (HDAC3; Conc. 4.12E-08 M, t1): 1033280
- HDAC3 activity raw data (signal) (HDAC3; Conc. 4.12E-08 M, t2): 1094012
- HDAC3 activity raw data (signal) (HDAC3; Conc. 4.57E-09 M, t1): 1032533
- HDAC3 activity raw data (signal) (HDAC3; Conc. 4.57E-09 M, t2): 1050723
- HDAC3 activity raw data (signal) (HDAC3; Conc. 5.08E-10 M, t1): 965053
- HDAC3 activity raw data (signal) (HDAC3; Conc. 5.08E-10 M, t2): 1022182
